From ChEMBL document CHEMBL1144148, “DNA polymerase beta inhibitors from Baeckea gunniana” (J Nat Prod, 1999)

Assays:
[1] = target: T1, DNA polymerase beta (Rattus norvegicus, UniProt P06766); experiment: Inhibition of rat DNA polymerase beta in presence of BSA
[2] = target: T1, DNA polymerase beta; experiment: Inhibition of rat DNA polymerase beta in absence of BSA
[3] = target: DNA polymerase beta (Rattus norvegicus) (UniProt P06766); experiment: Inhibition of rat DNA polymerase beta at 50 ug/mL
[4] = target: DNA polymerase beta (Rattus norvegicus) (UniProt P06766); experiment: Inhibition of rat DNA polymerase beta at 10 ug/mL

SMILES	IC50 [1]	IC50 [2]	inhibition [3]	inhibition [4]
C=C1CC[C@]2(C(=O)O)CC[C@]3(C)[C@H](CC[C@@H]4[C@@]5(C)CC[C@H](O)C(C)(C)[C@@H]5CC[C@]43C)C2=C1C	5.6 µM	2.5 µM	82%	68%
C=C1[C@H]2C3=CC[C@@H]4[C@@]5(C)CC[C@H](O)C(C)(C)[C@@H]5CC[C@@]4(C)[C@]3(C)CC[C@@]2(C(=O)O)CC[C@H]1C	5.3 µM	3.2 µM	80%	65%
CC1(C)CC[C@]2(C(=O)O)CC[C@]3(C)C(=CC[C@@H]4[C@@]5(C)CC[C@H](O)C(C)(C)[C@@H]5CC[C@]43C)[C@@H]2C1 [OLEANOLIC_ACID]	7.5 µM	3.7 µM	90%	42%
C[C@H]1[C@H](C)CC[C@]2(C(=O)O)CC[C@]3(C)C(=CC[C@@H]4[C@@]5(C)CC[C@H](O)C(C)(C)[C@@H]5CC[C@]43C)[C@H]12 [URSOLIC ACID]	8.5 µM	4.8 µM	90%	55%
